Laboratory results taken from patent US9095565B2, “Methods for treating blood disorders” (Phoenicia Biosciences, Inc., priority 2006, dated 2015).

System: γ globin promoter
Assay: β/γ-globin promoter driven reporter gene assay
Format: cell-based
Settings: Table 2

Compound | % γ globin promoter induction (above untreated control)
O=C(O)Cn1ccc(=O)cc1 [AA] | ** (‘**’ indicates a 100%-200% increase)
O=C(O)C1CCc2snnc2C1 (stereo not shown) [AB] | ** (‘**’ indicates a 100%-200% increase)
O=C(O)Cn1cc(Cl)c([N+](=O)[O-])n1 [AC] | ** (‘**’ indicates a 100%-200% increase)
Cn1cnnc1SCC(=O)O [AD] | ** (‘**’ indicates a 100%-200% increase)
O=C(O)CSc1nnc(S)s1 [AE] | ** (‘**’ indicates a 100%-200% increase)
O=C(CC1(C(=O)O)CCCCC1)c1cccs1 [AF] | * (‘*’ indicates a 80-100% increase)
O=C1CC(C(=O)O)Cc2ccsc21 (stereo not shown) [AG] | ** (‘**’ indicates a 100%-200% increase)
Cc1cc(SCC(=O)O)cs1 [AH] | ** (‘**’ indicates a 100%-200% increase)
O=C(O)CCC1(c2ccc(Cl)s2)CCCCC1 [AJ] | ** (‘**’ indicates a 100%-200% increase)
O=[N+]([O-])c1cc(S(=O)(=O)O)ccc1F [AK] | ** (‘**’ indicates a 100%-200% increase)
O=C(O)/C=C/c1ccnc2ccccc12 [F] | *** (‘***’ indicates an over 200% increase of γ globin promoter induction over untreated controls)
O=C(O)CN1C(=O)S/C(=C/c2ccccc2O)C1=O [K] | * (‘*’ indicates a 80-100% increase)
O=C(O)CNc1ccc(SC(F)(F)F)cc1 [N] | *** (‘***’ indicates an over 200% increase of γ globin promoter induction over untreated controls)
COc1cc(OC)cc(Oc2ccccc2C(=O)O)c1 [O] | * (‘*’ indicates a 80-100% increase)
COc1cc(OC)cc(SC(C(=O)O)C(C)C)c1 (stereo not shown) [Q] | ** (‘**’ indicates a 100%-200% increase)
COc1ccc(C(N)CC(=O)O)cc1OC (stereo not shown) [R] | *** (‘***’ indicates an over 200% increase of γ globin promoter induction over untreated controls)
O=C(O)Cc1[nH]c(=O)cc(O)c1C(=O)O [S] | ** (‘**’ indicates a 100%-200% increase)
O=C1CSc2ccc(C(=O)O)cc2N1 [T] | ** (‘**’ indicates a 100%-200% increase)
COc1cccc(SCC(=O)O)c1 [V] | ** (‘**’ indicates a 100%-200% increase)
O=C(O)c1cccc(Cn2cc(Cl)cn2)c1 [Z] | ** (‘**’ indicates a 100%-200% increase)

System: BFU-E
Assay: BFU-E cultured from cord blood
Format: cell-based, human
Settings: not given
Description: (§1) Erythroid burst-forming units (BFU-E) (erythroid progenitors) and colony-forming units granulocyte-macrophage (CFU-GM) (myeloid colonies) were cultured in semi-solid or in two-phase suspension media, with or without hematopoietic growth factors at high levels (e.g., erythropoietin at 3 U/ml) or reduced levels (BFU-E cell proliferation was evaluated by enumeration in colonies developing in the presence of reduced amounts of erythropoietin (0.5 U/ml) rather than 3 U (or 3000 mU)/ml, which is standard for these experimental systems), from cord blood or the peripheral blood of several types of humans. Experiments were carried out on samples derived from 1) β-thalassemia patients who expressed variable levels of fetal globin at baseline (and in untreated control cultures) and represent a variety of potential individual responses, 2) from normal umbilical cord blood samples, which express 40-50% fetal globin at baseline (and in untreated control cultures), 3) from CD34+ cells isolated from normal adult peripheral blood, which expressed low levels of fetal globin in untreated control cultures and at baseline; and 4) from peripheral blood of patients with sickle cell disease who were receiving treatment with hydroxyurea. These biological samples provide a range of potential difficulty in stimulating fetal globin expression in human patients.
In a related study, BFU-E cultured from cord blood, was tested with or without compound M, P, R, T, W, Y, Z, AI, F, or 3-(5-chlorothien-3-yl)acrylic acid.

Compound | numbers of BFU-E colonies compared to controls
O=C(O)C=Cc1csc(Cl)c1 [3-(5-chlorothien-3-yl)acrylic acid] | increased numbers of colonies
O=C(O)/C=C/c1ccnc2ccccc12 [F] | increased numbers of colonies
COc1ccc(C(N)CC(=O)O)cc1OC (stereo not shown) [R] | increased numbers of colonies
O=C1CSc2ccc(C(=O)O)cc2N1 [T] | increased numbers of colonies
O=C(O)c1cccc(Cn2cc(Cl)cn2)c1 [Z] | increased numbers of colonies

System: cells expressing fetal globin (F-cells)
Assay: Experiment 1: proportion of F-cells in hematopoietic colonies by FACScan
Format: cell-based, human
Settings: same low concentrations as for fetal globin mRNA induction
Description: as §1
Hematopoietic colonies were enumerated with or without (+/−) the test compounds, and compared to colonies which developed in the presence of hematopoietic growth factors alone from the same subject (untreated control colonies), and proportions of cells expressing fetal globin (F-cells) were analyzed by FACScan analysis.

Compound | proportion of F-cells above the percentage in untreated controls
Cc1cc2c(C(=O)O)cccc2o1 [2-methyl-1-benzofuran-4-carboxylic acid] | significant increases
O=C(O)C=Cc1csc(Cl)c1 [3-(5-chlorothien-3-yl)acrylic acid] | significant increases
O=C(O)/C=C/c1ccnc2ccccc12 [F] | significant increases
O=C(O)CNc1ccc(SC(F)(F)F)cc1 [N] | significant increases
COc1ccc(C(N)CC(=O)O)cc1OC (stereo not shown) [R] | significant increases
O=C1CSc2ccc(C(=O)O)cc2N1 [T] | significant increases
COc1cccc(SCC(=O)O)c1 [V] | significant increases
O=C(O)c1cccc(Cn2cc(Cl)cn2)c1 [Z] | significant increases

System: Erythroid colonies (BFU-E)
Assay: Experiment 2: erythroid colonies (BFU-E) cultured from patients with beta thalassemia
Format: cell-based, human
Settings: optimal panel of growth factors
Description: as §1
Erythroid colonies were cultured from patients with beta thalassemia, either without any test compounds (Control), only an optimal panel of hematopoietic growth factors, or with one of the test compounds M, P, T, 2-methyl-1-benzofuran-4-carboxylic acid, V, W, X, Y, AK, AC, or AI. […] Colony numbers were increased above the control cultures (% BFU-E/Control) by anywhere from 25% to 230%. Each of the listed test compounds was tested in at least 5 different patients' blood and the differences were statistically significant.

Compound | number of erythroid colonies compared to matched control cultures
Cc1cc2c(C(=O)O)cccc2o1 [2-methyl-1-benzofuran-4-carboxylic acid] | increased the number of colonies
O=C(O)Cn1cc(Cl)c([N+](=O)[O-])n1 [AC] | increased the number of colonies
O=[N+]([O-])c1cc(S(=O)(=O)O)ccc1F [AK] | increased the number of colonies
O=C1CSc2ccc(C(=O)O)cc2N1 [T] | increased the number of colonies
COc1cccc(SCC(=O)O)c1 [V] | increased the number of colonies

System: γ-globin gene reporter
Assay: Related study: relative luciferase reporter gene induction
Format: cell-based
Settings: not given
Description: (§2) In a related study, the relative luciferase reporter gene induction, γ-globin gene induction, and F cell production was tested for several of the candidate compounds. The relative in vitro γ-globin gene reporter stimulation for the tested compounds was as follows: compound P>M>W=R=Y. The relative in vitro γ-globin gene induction for the tested compounds was as follows: P>R=M>Y>W>. The relative in vitro F-cell production was as follows: W>Y>R>M>P. The relative potency for F-cell production was as follows: R>M>Y>P>W.

Compound | relative in vitro γ-globin gene reporter stimulation (rank order)
COc1ccc(C(N)CC(=O)O)cc1OC (stereo not shown) [R] | P>M>W=R=Y

System: F-cell
Assay: Related study: in vitro F cell production
Format: cell-based
Settings: not given
Description: as §2

Compound | relative in vitro F-cell production (rank order) | relative potency for F-cell production (rank order)
COc1ccc(C(N)CC(=O)O)cc1OC (stereo not shown) [R] | W>Y>R>M>P | R>M>Y>P>W

System: γ-globin mRNA
Assay: γ-globin mRNA by RT-PCR in erythroid colonies cultured from cord blood
Format: cell-based, human
Settings: 3 cultures
Description: γ-globin mRNA was analyzed in control and treated erythroid colonies cultured from cord blood, by RT-PCR.

Compound | fetal globin induction
COc1cc(OC)nc(S[C@@H](C(=O)O)C(C)C)n1 [Y + R] | demonstrated fetal globin inducing action
COc1cc(OC)nc(S[C@H](C(=O)O)C(C)C)n1 [Y − S] | did not induce fetal globin in 2 of (the same) 3 cultures

Same assay, conditions: increase in fetal globin mRNA, erythroid colonies from cord blood

Compound | Concentration required [µM]
Cc1cc2c(C(=O)O)cccc2o1 [2-methyl-1-benzofuran-4-carboxylic acid] | 5
O=C(O)C=Cc1csc(Cl)c1 [3-(5-chlorothien-3-yl)acrylic acid] | 30
COc1cccc(SCC(=O)O)c1 [V] | 5
COc1cc(OC)nc(S[C@@H](C(=O)O)C(C)C)n1 [Y + R] | 5
COc1cc(OC)nc(S[C@H](C(=O)O)C(C)C)n1 [Y − S] | 5

Same assay, conditions: positive cultures/cultures tested

Compound | No. of Positive responses
Cc1cc2c(C(=O)O)cccc2o1 [2-methyl-1-benzofuran-4-carboxylic acid] | 6/6
COc1cccc(SCC(=O)O)c1 [V] | 6/6
COc1cc(OC)nc(S[C@@H](C(=O)O)C(C)C)n1 [Y + R] | 2/3
COc1cc(OC)nc(S[C@H](C(=O)O)C(C)C)n1 [Y − S] | 1/3

System: Erythroid colonies
Assay: Example 7: erythroid colonies cultured with low Erythropoietin (0.5 U/ml) and compound Y enantiomers
Format: cell-based, human
Settings: not given
Description: The proliferative activity of compound Y—S enantiomer was tested in vitro in erythroid colonies cultured from peripheral blood of 3 sources of individuals: sickle cell anemia patients who were taking Hydroxyurea and have suppression of their endogenous erythropoiesis, a normal adult subject, and two cord blood samples. The erythroid cultures were established with low concentrations of Erythropoietin (0.5 U/ml) alone and with one or the other enantiomer of compound Y or the racemic mixture, or with high concentrations of EPO (3 Units/ml, =3000 mU/ml, 100-fold the normal physiologic concentration).

Compound | erythroid cell proliferation
COc1cc(OC)nc(S[C@@H](C(=O)O)C(C)C)n1 [Y + R] | does not stimulate cell proliferation
COc1cc(OC)nc(S[C@H](C(=O)O)C(C)C)n1 [Y − S] | stimulates erythroid cell proliferation significantly

Same assay, conditions: high EPO 3 Units/ml

Compound | mean more colonies than cultures with racemic mix or R enantiomer in low EPO [%] | range of more colonies than cultures with racemic mix or R enantiomer in low EPO
EPO: Erythropoietin, high concentration 3 Units/ml in erythroid cultures | 35 | 25-45%

Same assay, conditions: low EPO 0.5 U/ml

Compound | range of more erythroid colonies than in the racemic mixture
COc1cc(OC)nc(S[C@H](C(=O)O)C(C)C)n1 [Y − S] | 38-50%

Same assay, conditions: low EPO 0.5 U/ml, same concentration

Compound | mean more erythroid colonies than in the racemic mixture [%]
COc1cc(OC)nc(S[C@H](C(=O)O)C(C)C)n1 [Y − S] | 45

System: fetal globin mRNA
Assay: Fetal globin induction in phlebotomized anemic baboons
Format: in vivo, baboon
Settings: Baboon 5002, 50 mg/kg
Description: Juvenile baboons were catheterized with venous and arterial catheters, and were phlebotomized a set amount of blood daily to maintain anemia with a hemoglobin level of 7.0-7.5 g/dl, from a baseline normal hemoglobin level of (12-13 g/dl). Normal saline was infused to replace the amount of blood withdrawn. This degree of phlebotomy exchanges the blood volume every 10-20 days.
Fetal globin mRNA was analyzed at baseline anemia before and following administration of test compounds. Globin chain protein synthesis confirmed the mRNA findings.
Following establishment of the stable level of anemia, a test compound was administered once/day, either intravenously or orally, and blood was withdrawn through the arterial catheter for analysis of globin mRNA or for analysis of the test compound in the plasma by HPLC-MS. Pharmacokinetic profiles were established from the plasma levels and oral bioavailability (comparing area under the curve between IV and oral plasma levels) was determined for the test compounds.
In anemic Baboon 5002, baseline fetal globin mRNA, assayed by RNAse protection, was 26% of non-alpha globin. With treatment with compound Y at 5 mg/kg/dose, fetal globin mRNA increased to 48% of non-alpha globin, an 85% increase over the baseline level. Treatment with compound AK at 50 mg/kg induced a 51% fetal globin mRNA increase, a 96% increase over the baseline level. […] The human equivalent dose is 20% of these doses, or 1 mg/kg, 10 mg/kg, or 8 mg/kg respectively. Thus, these 3 compounds are highly suitable for pharmaceutical compositions at doses that human patients can readily tolerate.

Compound | increase over the baseline level of fetal globin mRNA [%]
O=[N+]([O-])c1cc(S(=O)(=O)O)ccc1F [AK] | 96

Same assay, conditions: Baboon 5002, 50 mg/kg, baseline 26%

Compound | fetal globin mRNA (% of non-alpha globin) [%]
O=[N+]([O-])c1cc(S(=O)(=O)O)ccc1F [AK] | 51

System: γ-globin gene
Assay: Related study: relative in vitro γ-globin gene induction
Format: cell-based
Settings: not given
Description: as §2

Compound | relative in vitro γ-globin gene induction (rank order)
COc1ccc(C(N)CC(=O)O)cc1OC (stereo not shown) [R] | P>R=M>Y>W
